Test [1] relates to DU145 (human prostate cancer cells). Put plainly: MTT cancer cell growth inhibition. It counts as cell-based. As to conditions: Homo sapiens, DU-145, 72 h, MTT, 72 hours incubation, read-out: GI50 Du1. Put shortly: (§1)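 Tumour cells in 10% FBS-supplemented DMEM or RPMI 1640 are plated at 1500 per well, dosed next day with compound (10^−5 through 10^−10 M, final) and kept 72 h. MTT is added for 4 h; dissolved formazan is measured at 570 nm and GI50 determined.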

For test [2], the system named is HT1080 (human fibrosarcoma cells). Put plainly: MTT cancer cell growth inhibition. It counts as cell-based. Conditions: Homo sapiens, HT-1080, 72 h, MTT, 72 hours incubation, read-out: GI50 HT1. Put shortly:
as §1

Test [3] deals with Bel-7402 (human hepatoma cells). As to the kind of experiment: MTT cancer cell growth inhibition. Conditions: Homo sapiens, Bel-7402, 72 h, MTT, 72 hours incubation, Bel-7402 cells; read-out: GI50 Bel-7402. In kind it is cell-based. Summed up:
as §1

Test [4] deals with lncap (prostate cancer cells). As to the kind of experiment: MTT cancer cell growth inhibition. It counts as cell-based. As to conditions: Homo sapiens, LNCaP, 72 h, MTT, 72 hours incubation, read-out: GI50 lnca. Summed up: as §1
Test [5] has as its system H1975 (non-small cell lung adenocarcinoma). As to the kind of experiment: MTT cancer cell growth inhibition. As to conditions: Homo sapiens, NCI-H1975, 72 h, MTT, 72 hours incubation, H1975 cells; read-out: GI50 H1975. It counts as cell-based. Summed up:
as §1

Test [6] has as its system K562 (human leukemia cells). Put plainly: MTT cancer cell growth inhibition. In kind it is cell-based. Conditions: Homo sapiens, K562, 72 h, MTT, 72 hours incubation, K562 cells; read-out: GI50 K562. Summed up:
as §1

Test [7] relates to Huh-7 (human hepatoma cells). Put plainly: MTT cancer cell growth inhibition. It counts as cell-based. As to conditions: Homo sapiens, Huh-7, 72 h, MTT, 72 hours incubation, Huh-7 cells; read-out: GI50 Huh-7. Summed up: as §1
Test [8] relates to HCC827 (human non-small cell lung cancer cells). Put plainly: MTT cancer cell growth inhibition. In kind it is cell-based. As to conditions: Homo sapiens, HCC827, 72 h, MTT, 72 hours incubation, HCC827 cells; read-out: GI50 HCC827. Summed up:
as §1

Test [9] deals with PANC-1 (Pac-1, human pancreatic cancer cells). Put plainly: MTT cancer cell growth inhibition. As to conditions: Homo sapiens, PANC-1, 72 h, MTT, 72 hours incubation, read-out: GI50 PAN. It counts as cell-based. Put shortly:
as §1

Test [10] deals with N-87 (human gastric cancer cells). Put plainly: MTT cancer cell growth inhibition. It counts as cell-based. Conditions: Homo sapiens, 72 h, MTT, 72 hours incubation, N-87 cells; read-out: GI50 N-87. Put shortly:
as §1

For test [11], the system named is MDA-MB-231 (breast cancer cells). As to the kind of experiment: MTT cancer cell growth inhibition. In kind it is cell-based. Conditions: Homo sapiens, MDA-MB-231, 72 h, read-out: GI50 MDA-MB-231, MTT, 72 hours incubation, MDA-MB-231 cells. Summed up:
as §1

For test [12], the system named is BGC-823 (human gastric cancer cells). As to the kind of experiment: MTT cancer cell growth inhibition. In kind it is cell-based. Conditions: Homo sapiens, BGC-823, 72 h, MTT, 72 hours incubation, read-out: GI50 BG. Summed up:
as §1

In test [13] the test system is U937 (human leukemia cells). As to the kind of experiment: MTT cancer cell growth inhibition. In kind it is cell-based. Conditions: Homo sapiens, U-937, 72 h, MTT, 72 hours incubation, read-out: GI50 U93. Put shortly:
as §1

For test [14], the system named is Hela (human cervical cancer cells). As to the kind of experiment: MTT cancer cell growth inhibition. As to conditions: Homo sapiens, HeLa, 72 h, MTT, 72 hours incubation, read-out: GI50 Hela. It counts as cell-based. Put shortly: as §1
In test [15] the test system is SGC-7901 (human gastric cancer cells). As to the kind of experiment: MTT cancer cell growth inhibition. It counts as cell-based. Conditions: Homo sapiens, SGC-7901, 72 h, MTT, 72 hours incubation, SGC-7901 cells; read-out: GI50 SGC-7901. Put shortly: as §1
Test [16] has as its system KBM-5 (human chronic myelogenous leukemia). As to the kind of experiment: MTT cancer cell growth inhibition. In kind it is cell-based. As to conditions: Homo sapiens, KBM5, 72 h, MTT, 72 hours incubation, KBM-5 cells; read-out: GI50 KBM-5. Summed up:
as §1

In test [17] the test system is MCF-7 (human breast cancer cells). Put plainly: MTT cancer cell growth inhibition. Conditions: Homo sapiens, MCF7, 72 h, 72 hours incubation, read-out: GI50 MCF. It counts as cell-based. Summed up:
as §1

For test [18], the system named is KBM5-T315I (human chronic myelogenous leukemia). Put plainly: MTT cancer cell growth inhibition. In kind it is cell-based. Conditions: Homo sapiens, 72 h, MTT, 72 hours incubation, KBM5-T315I cells; read-out: GI50 KBM5-T315I. Put shortly: as §1
The subject of test [19] is MOLT-4 (human acute lymphoblastic leukemia cells). Put plainly: MTT cancer cell growth inhibition. In kind it is cell-based. Conditions: Homo sapiens, MOLT-4, 72 h, MTT, 72 hours incubation, read-out: GI50 Mol. Put shortly:
as §1

The test system of test [20] is A549 (human lung cancer cells). As to the kind of experiment: MTT cancer cell growth inhibition. In kind it is cell-based. As to conditions: Homo sapiens, A549, 72 h, MTT, 72 hours incubation, read-out: GI50 A54. Summed up: as §1
A further test concerns the target T1, HDAC7 (Homo sapiens, UniProt Q8WUI4).
T1 sequence (Q8WUI4 1-952): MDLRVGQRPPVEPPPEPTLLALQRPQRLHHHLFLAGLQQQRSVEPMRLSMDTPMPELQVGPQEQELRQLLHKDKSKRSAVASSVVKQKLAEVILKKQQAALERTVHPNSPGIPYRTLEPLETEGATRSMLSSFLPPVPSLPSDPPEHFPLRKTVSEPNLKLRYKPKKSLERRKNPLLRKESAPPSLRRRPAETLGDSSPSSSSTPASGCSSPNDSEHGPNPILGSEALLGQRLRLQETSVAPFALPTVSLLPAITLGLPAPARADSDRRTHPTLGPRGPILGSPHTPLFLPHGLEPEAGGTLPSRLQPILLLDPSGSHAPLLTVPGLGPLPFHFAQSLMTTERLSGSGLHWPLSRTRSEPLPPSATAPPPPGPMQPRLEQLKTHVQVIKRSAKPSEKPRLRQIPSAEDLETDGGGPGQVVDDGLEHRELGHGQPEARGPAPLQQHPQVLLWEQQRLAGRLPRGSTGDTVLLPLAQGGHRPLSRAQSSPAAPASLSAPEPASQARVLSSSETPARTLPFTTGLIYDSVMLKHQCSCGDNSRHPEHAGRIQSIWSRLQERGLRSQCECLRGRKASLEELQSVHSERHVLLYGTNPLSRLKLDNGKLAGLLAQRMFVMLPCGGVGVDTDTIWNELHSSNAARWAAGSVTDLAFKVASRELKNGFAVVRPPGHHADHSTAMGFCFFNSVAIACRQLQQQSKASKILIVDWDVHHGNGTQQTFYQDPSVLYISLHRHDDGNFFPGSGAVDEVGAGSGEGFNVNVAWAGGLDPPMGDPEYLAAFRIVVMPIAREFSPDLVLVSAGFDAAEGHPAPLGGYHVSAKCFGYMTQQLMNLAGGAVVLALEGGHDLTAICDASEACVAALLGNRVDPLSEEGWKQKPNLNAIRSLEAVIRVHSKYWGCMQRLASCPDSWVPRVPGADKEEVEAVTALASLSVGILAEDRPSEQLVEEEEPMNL
Put plainly: HDAC biochemical activity measurement (fluorescent substrate deacetylation).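 Further: fluorogenic deacetylation assay using acetyl-lysine substrate at 20 µM, enzyme and compound incubated 30 min at 37 °C, then developer added, fluorescence read at 360/460 nm.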 As to conditions: HDAC7; 37° C. 30 minutes.

Results on five molecules are retold here after patent publication US10065990B2, “Cyclic peptide compound, and preparation method, pharmaceutical composition and use thereof” (HANGZHOU GUANYU BIO-MEDICAL CO., LTD, priority 2013, dated 2018).

Read-outs that look alike come from different tables or passages of the source.

The GI50 is the concentration giving 50% growth inhibition.

In the case of `C/C=C1\NC(=O)c2ccc(SC)c(n2)CNC(=O)C[C@@H](/C=C/CCS)OC(=O)[C@H](C(C)C)NC1=O` [Compound 228], the GI50 is 20 nM in [1] (DU145 cells); 40 nM in [2] (HT1080 cells); 56 nM in test [3]; 20 nM in [4] (lncap cells); 48 nM in [5]; 62 nM in [6]. Also, the GI50 was determined as 35 nM in [7]; 17 nM in [8]; 30 nM in [9] (PANC-1 cells); 35 nM in test [10]; 69 nM in test [11]; 60 nM in [12] (BGC-823 cells). Also, the GI50 in [13] (U937 cells) came to 40 nM; in test [14] (Hela cells), 10 nM; in test [15], 12 nM; in [16] it was 62 nM; in [17] (MCF-7 cells), 30 nM; in test [18], 33 nM. In addition, the 50% growth inhibitory concentration (GI50) was 50 nM in test [19] (MOLT-4 cells) and 30 nM in test [20] (A549 cells). Moreover, the “IC50 HDAC7” value against HDAC7 was “no activity”.

As for `C=C1NC(=O)c2cc(F)cc(n2)CNC(=O)C[C@@H](/C=C/CCSC(C)=O)OC(=O)[C@H](C(C)C)NC1=O` [Compound 85], the GI50 in [1] came to 20 nM; in test [2] it was 40 nM; in [3], 49 nM; in [4] it was 30 nM; in test [5], 61 nM; in [6], 26 nM. In addition, the GI50 in test [7] worked out at 39 nM; in test [8], 49 nM; in test [9], 40 nM; in [10], 27 nM; in test [11], 39 nM; in test [12] it was 20 nM. Further, the GI50 turned out to be 60 nM in [13]; 50 nM in test [14]; 15 nM in test [15]; 53 nM in test [16]; 20 nM in test [17]; 25 nM in [18]. Moreover, the values for the GI50 in [19] and in [20] were 30 nM and 10 nM, respectively. The “IC50 HDAC7” value against HDAC7 is “no activity”.

Consider `C/C=C1\NC(=O)c2ccc(F)c(n2)CCNC(=O)C[C@@H](/C=C/CCSC(C)=O)OC(=O)[C@H](C(C)C)NC1=O` [Compound 105], for which the GI50 in [1] came to 30 nM; in test [2], 70 nM; in test [3], 21 nM; in [4], 20 nM; in [5], 97 nM; in test [6], 19 nM. In addition, the GI50 was found to be 56 nM in [7]; 47 nM in test [8]; 70 nM in [9]; 93 nM in test [10]; 86 nM in test [11]; 10 nM in test [12]. The GI50 in test [13] turned out to be 50 nM; in test [14] it was 50 nM; in [15] it was 16 nM; in [16], 23 nM; in test [17], 20 nM; in test [18], 53 nM. Also, the GI50 in test [19] was 20 nM; in test [20], 40 nM. For the same molecule, the “IC50 HDAC7” value on HDAC7 is “no activity”.

Consider `C/C=C1\NC(=O)c2cc(SC)cc(n2)CNC(=O)C[C@@H](/C=C/CCSC(=O)CCCCCCC)OC(=O)[C@H](CC)NC1=O` [Compound 172], for which the GI50 worked out at 40 nM in [1] (DU145 cells); 60 nM in [2] (HT1080 cells); 73 nM in [3]; 20 nM in [4] (lncap cells); 45 nM in test [5]; 26 nM in test [6]. Besides, the GI50 in test [7] was 23 nM; in [8], 32 nM; in [9] (PANC-1 cells) it was 80 nM; in [10], 84 nM; in test [11], 78 nM; in test [12] (BGC-823 cells), 60 nM. Besides, the GI50 in [13] (U937 cells) is 40 nM; in test [14] (Hela cells), 50 nM; in test [15], 31 nM; in test [16] it was 35 nM; in test [17] (MCF-7 cells) it was 60 nM; in test [18], 41 nM. Further, the GI50 stood at 20 nM in test [19] (MOLT-4 cells) and 30 nM in [20] (A549 cells). In addition, the “IC50 HDAC7” value on HDAC7 is given as “no activity”.

In the case of `C/C=C1\NC(=O)c2nc(ccc2SC)CNC(=O)C[C@@H](/C=C/CCSC(=O)CCCCCCC)OC(=O)[C@H](C)NC1=O` [Compound 180], the GI50 in test [1] (DU145 cells) was 60 nM; in [2] (HT1080 cells), 50 nM; in test [3] it was 48 nM; in test [4] (lncap cells), 20 nM; in test [5], 97 nM; in test [6] it was 49 nM. Besides, the GI50 is 17 nM in test [7]; 13 nM in test [8]; 30 nM in test [9] (PANC-1 cells); 62 nM in [10]; 56 nM in test [11]; 50 nM in [12] (BGC-823 cells). Also, the GI50 in test [13] (U937 cells) turned out to be 70 nM; in test [14] (Hela cells) it was 100 nM; in test [15], 35 nM; in [16], 29 nM; in test [17] (MCF-7 cells), 20 nM; in [18], 57 nM. Besides, the GI50 amounted to 50 nM in [19] (MOLT-4 cells) and 30 nM in test [20] (A549 cells). For the same molecule, at HDAC7, the “IC50 HDAC7” value is recorded as “no activity”.
